Data reported in patent publication US20040039554A1, “Iterative analysis of non-responding population in the design of pharmacogenetic studies” (priority 2000, published 2004).
Structures can show the parent of a compound that is named as a salt.

Key:
[1] = tested on: female patients with IBS (non-constipated); test: Relief of IBS symptoms in double-blind, placebo controlled clinical trials of alosetron, stratified by 5HTT genotype; format: in vivo, human; details: in each of the three 5HTT genotypes
Excerpt: FIG. 1 is a graph based on data collected from female patients enrolled in clinical trials of alosetron for the treatment of IBS. The study population was comprised of non-constipated individuals with IBS. The subjects were divided into 5HTT genotypes. Of the 219 subjects, 71(32.4%) were genotype del/del (deletion/deletion, alternatively denoted as “1/1”) 5HTT, 75 (34.2%) were genotype del/ins (deletion/insertion, alternatively denoted as “1/2”) 5HTT and 73 (33.3%) were genotype ins/ins (insert/insert, alternatively denoted as “2/2”) 5HTT. […] “Response” was defined as relief of IBS symptoms (abdominal pain and discomfort) during six weeks of a twelve week treatment study. Two hundred and nineteen subjects, received either alosetron (102 subjects) or matched placebo (117 subjects). The proportion of patients achieving response following treatment with alosetron was 68% (21/31) for del/del 5HTT, 64% (21/33) for del/ins 5HTT and 58% (22/38) for ins/ins 5HTT. The proportion of patients achieving response following treatment with placebo was 58% (23/40) for del/del 5HTT, 38% (16/42) for del/ins 5HTT and 34% (12/35) for ins/ins 5HTT. […]
The subjects' response to alosetron in the clinical trial setting was reviewed and correlated with genotype. […] The incidence of various other effects, including constipation, was also recorded. […]

[2] = tested on: patients with Irritable Bowel Syndrome (IBS); details: double blind, placebo controlled studies; cited from earlier work

Cc1[nH]cnc1CN1CCc2c(c3ccccc3n2C)C1=O [alosetron, Alosetron hydrochloride]
effectiveness compared with placebo in relieving IBS symptoms [1]: more effective than placebo | effect on pain and bowel function in patients with IBS [2]: reduce pain and improve bowel function
